Reference: PMC5522996, “Big conductance calcium‐activated potassium channel openers control spasticity without sedation” (British Journal of Pharmacology, 2017)
“Also recorded” adds a separate entry of the source.

Assays:
[1] = tested on: α1(non-selective); experiment: Receptor binding profile of VSN16R; set-up: species or system human; details: 10µM VSN16R
[2] = biological target: T1, SK+Ca channel (KCNN2) (Homo sapiens, UniProt Q9H2S1); experiment: Receptor binding profile of VSN16R
T1 construct: purchased Cerep; Chantest; DiscoveRx; Multispan; MDS Pharma Services

[3] = biological target: T2, EDG6 (Homo sapiens, UniProt O95977); experiment: Receptor binding profile of VSN16R; details: 10µM VSN16R
T2 construct: purchased Cerep; Chantest; DiscoveRx; Multispan; MDS Pharma Services

[4] = biological target: T3, NT1 (Homo sapiens, UniProt P30989); experiment: Receptor binding profile of VSN16R; details: 10µM VSN16R
T3 construct: purchased Cerep; Chantest; DiscoveRx; Multispan; MDS Pharma Services

[5] = biological target: T4, BKCa channel (Homo sapiens, UniProt Q12791+Q86W47); experiment: Single‐channel inside‐out patch clamp, EA.hy926 cells; type: cell-based; details: 3 μM, inner surface of membrane, 40 mV, 0.3 μM free Ca^2+
T4 construct: host or cells: EA.hy926 endothelial cells
Description: (§1) The human EA.hy926 endothelial cells (ATCC, Manassas, USA) were grown in DMEM containing 10% FCS and 1% HAT (5 mM hypoxanthine, 20 μM aminopterin and 0.8 mM thymidine) and were maintained in an incubator at 37°C in 5% CO2 atmosphere (Bondarenko et al., 2013). Human HNC‐2 neuronal cells were obtained from ATCC. For experiments, cells were plated on glass coverslips. Single‐channel recordings were obtained from excised inside‐out membrane patches in symmetrical solutions using the patch‐clamp technique. All patch‐clamp experiments were performed at room temperature with the use of a water hydraulic micromanipulator (WR‐6, Narishige, Japan). […] The pipettes were filled with 140 mM KCl, 10 mM HEPES, 1 mM MgCl2, 5 mM EGTA and […] CaCl2 buffered to pH 7.2 by adding KOH. Cells were super‐perfused with a bath solution containing 140 mM NaCl, 5 mM KCl, 1.2 mM MgCl2, 10 mM HEPES, 10 mM glucose and 2.4 mM CaCl2. Following gigaseal formation, bath solution was switched to the following: 140 mM KCl, 10 mM HEPES, 1 mM MgCl2, 5 mM EGTA and a designated free Ca^2+ concentration, which was adjusted by adding different amounts of CaCl2 buffered to pH 7.2. (Bondarenko et al., 2011; Bondarenko et al., 2013). Single‐channel activity was expressed as NPo, where N represents the number of functional ion channels in the membrane patch and Po represents the open channel probability determined from idealized traces (Bondarenko et al., 2011). NPo was obtained from ≥20 s of continuous recording under each experimental condition. The effect of VSN16R was estimated after 3 min of continuous exposure to VSN16R‐containing solution. Data were analysed by ANOVA, and statistical significance was evaluated using Scheffés post hoc test of the Prism 5 software for Windows (GraphPad Software).

[6] = biological target: CYP450 3A7 (Homo sapiens, UniProt P24462)
[7] = tested on: primary porcine aorta endothelium; experiment: Patch clamp of primary pig aorta endothelium; type: cell-based
[8] = biological target: T5, EDG4 (Homo sapiens, UniProt Q9HBW0); experiment: Receptor binding profile of VSN16R; details: 10µM VSN16R
T5 construct: purchased Cerep; Chantest; DiscoveRx; Multispan; MDS Pharma Services

[9] = biological target: T6, CB2 (Homo sapiens, UniProt P34972); experiment: Receptor binding profile of VSN16R
T6 construct: purchased Cerep; Chantest; DiscoveRx; Multispan; MDS Pharma Services

[10] = biological target: T7, CXCR2 (Homo sapiens, UniProt P25025); experiment: Receptor binding profile of VSN16R; details: 10µM VSN16R
T7 construct: purchased Cerep; Chantest; DiscoveRx; Multispan; MDS Pharma Services

[11] = biological target: T8, D2S (Homo sapiens, UniProt P14416); experiment: Receptor binding profile of VSN16R; details: 10µM VSN16R
T8 construct: purchased Cerep; Chantest; DiscoveRx; Multispan; MDS Pharma Services

[12] = tested on: Cl- channel; experiment: Receptor binding profile of VSN16R; set-up: species or system human; details: 10µM VSN16R
[13] = biological target: CYP450 2C19 (Homo sapiens, UniProt P33261)
Description: (§2) Inhibition of binding of either 3-cyano-7-ethoxycoumarin, dibenzylfluorescein or 7-benzyoxy-4-
(§3) (trifluoromethyl) coumarin in human enzyme transfected BTI NN-5B1-4 cells or Sf9 insect cells or
(§4) inhibition of dextromethorphan substrate to CYP450 2D6 in liver microsomes.

[14] = biological target: T9, fatty acid amide hydrolase (Homo sapiens, UniProt O00519); experiment: Receptor binding profile of VSN16R; details: 10µM VSN16R
T9 construct: purchased Cerep; Chantest; DiscoveRx; Multispan; MDS Pharma Services

[15] = tested on: rat mesenteric artery; set-up: method as in Hoi et al., 2007; details: ref Hoi et al., 2007; read-out: EC50, vasorelaxation of rat mesenteric arteries; cited from earlier work
[16] = tested on: mouse vas deferens; experiment: Electrically‐evoked contraction of the mouse vas deferens; type: cell-based; details: Mus musculus, read-out: EC50, inhibition of electrically‐evoked contraction
Description: Vasa deferentia were obtained from outbred MF‐1 mice and mounted vertically in a 4 mL organ bath at an initial tension of 0.5 g. The baths contained Mg^2+‐free Krebs solution (NaCl 118.2 mM, KCl 4.75 mM, KH2PO4 1.19 mM, NaHCO3 25.0 mM, glucose 11.0 mM and CaCl2·6H2O 2.54 mM), which was kept at 35–36°C and bubbled with 95% O2 and 5% CO2. […] Contractions were monitored by a computer using a data recording and analysis system as described previously (Ross et al., 2001). After placement in an organ bath, each tissue was subjected to a stimulation‐free period of 10 min and then stimulated for 10 min. Tissues were then subjected to alternate periods of stimulation (5 min) and rest (10 min) until consistent twitch amplitudes were obtained. This equilibration procedure was followed by a stimulation‐free period of 25 min. Tissues were then stimulated for 5 min after which the first agonist addition was made and stimulation continued until the end of the experiment.

[17] = tested on: K+V channel; experiment: Receptor binding profile of VSN16R; set-up: species or system human; details: 10µM VSN16R
[18] = biological target: BKCa channel (Homo sapiens, UniProt Q12791); experiment: Single‐channel inside‐out patch clamp, HCN‐2 neural cells; type: cell-based; details: inside‐out patches
Description: as §1, with “Following gigaseal formation, bath solution was switched to the following: 140 mM KCl, 10 mM HEPES, 1 mM MgCl2, 5 mM EGTA and a designated free Ca^2+ concentration, which was adjusted by adding different amounts of CaCl2 buffered to pH 7.2. (Bondarenko et al., 2011; Bondarenko et al., 2013).” left out, “NPo was obtained from ≥20 s of continuous recording under each experimental condition. The effect of VSN16R was estimated after 3 min of continuous exposure to VSN16R‐containing solution.” left out

[19] = biological target: T10, CYP450 2C9 (Homo sapiens, UniProt P11712); experiment: CYP450 inhibition of substrate binding; type: in vitro ADME; details: read-out: IC50 Inhibition of substrate binding, VSN16R
T10 construct: host or cells: BTI NN-5B1-4 or Sf9 insect cells
Description: as §2, §3, §4

[20] = biological target: T11, NE transporter (Homo sapiens, UniProt P23975); experiment: Receptor binding profile of VSN16R; details: 10µM VSN16R
T11 construct: purchased Cerep; Chantest; DiscoveRx; Multispan; MDS Pharma Services
T11 sequence (P23975 whole entry): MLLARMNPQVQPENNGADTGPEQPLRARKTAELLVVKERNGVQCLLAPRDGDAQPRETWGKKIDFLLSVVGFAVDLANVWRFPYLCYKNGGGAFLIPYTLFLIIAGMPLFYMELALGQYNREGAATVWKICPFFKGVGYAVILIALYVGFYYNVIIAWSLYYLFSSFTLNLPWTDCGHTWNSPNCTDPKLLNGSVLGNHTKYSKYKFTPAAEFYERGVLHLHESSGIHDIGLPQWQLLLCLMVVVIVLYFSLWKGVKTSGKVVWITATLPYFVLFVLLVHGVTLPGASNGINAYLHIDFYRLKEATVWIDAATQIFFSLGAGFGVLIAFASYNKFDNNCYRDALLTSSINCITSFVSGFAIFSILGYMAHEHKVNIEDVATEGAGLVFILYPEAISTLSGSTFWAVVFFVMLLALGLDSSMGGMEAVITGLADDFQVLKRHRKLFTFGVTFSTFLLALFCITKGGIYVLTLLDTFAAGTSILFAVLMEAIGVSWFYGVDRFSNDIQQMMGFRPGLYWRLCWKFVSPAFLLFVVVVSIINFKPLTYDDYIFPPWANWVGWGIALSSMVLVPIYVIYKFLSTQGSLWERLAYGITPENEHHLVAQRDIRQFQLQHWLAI

T6 sequence (P34972 whole entry): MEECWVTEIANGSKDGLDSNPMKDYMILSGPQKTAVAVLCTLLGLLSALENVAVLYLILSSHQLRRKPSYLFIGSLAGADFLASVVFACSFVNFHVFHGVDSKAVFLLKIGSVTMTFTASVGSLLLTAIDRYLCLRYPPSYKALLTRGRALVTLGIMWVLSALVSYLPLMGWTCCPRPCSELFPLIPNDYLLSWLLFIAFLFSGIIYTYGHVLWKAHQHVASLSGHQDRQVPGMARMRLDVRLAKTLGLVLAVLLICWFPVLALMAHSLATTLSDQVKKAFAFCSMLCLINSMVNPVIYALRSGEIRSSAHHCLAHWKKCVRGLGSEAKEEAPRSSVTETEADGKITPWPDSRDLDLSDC
CYP450 3A7, sequence (P24462 whole entry): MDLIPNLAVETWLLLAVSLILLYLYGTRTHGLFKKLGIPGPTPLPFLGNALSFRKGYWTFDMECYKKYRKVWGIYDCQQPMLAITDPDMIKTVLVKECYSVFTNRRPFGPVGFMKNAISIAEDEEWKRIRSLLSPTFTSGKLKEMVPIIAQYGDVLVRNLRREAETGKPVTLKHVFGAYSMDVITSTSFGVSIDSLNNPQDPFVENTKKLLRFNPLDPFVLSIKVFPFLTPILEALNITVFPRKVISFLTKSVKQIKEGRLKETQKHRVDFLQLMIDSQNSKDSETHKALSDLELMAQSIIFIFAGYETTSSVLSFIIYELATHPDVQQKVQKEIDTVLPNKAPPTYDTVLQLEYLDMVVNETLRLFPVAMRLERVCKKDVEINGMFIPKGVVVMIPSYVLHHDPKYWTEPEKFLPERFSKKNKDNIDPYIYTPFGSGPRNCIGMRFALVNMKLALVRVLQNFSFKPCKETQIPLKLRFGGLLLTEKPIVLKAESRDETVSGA
T3 sequence (P30989 whole entry): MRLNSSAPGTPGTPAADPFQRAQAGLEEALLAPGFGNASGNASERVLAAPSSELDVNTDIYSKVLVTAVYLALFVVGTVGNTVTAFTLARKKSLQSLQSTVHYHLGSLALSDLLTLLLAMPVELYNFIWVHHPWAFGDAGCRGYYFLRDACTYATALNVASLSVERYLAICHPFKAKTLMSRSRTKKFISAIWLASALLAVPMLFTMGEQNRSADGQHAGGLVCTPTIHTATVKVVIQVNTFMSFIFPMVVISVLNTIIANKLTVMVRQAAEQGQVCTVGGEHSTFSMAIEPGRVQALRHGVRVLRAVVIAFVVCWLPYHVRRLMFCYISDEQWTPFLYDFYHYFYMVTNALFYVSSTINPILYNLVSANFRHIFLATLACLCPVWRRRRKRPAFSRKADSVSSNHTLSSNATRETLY
T5 sequence (Q9HBW0 whole entry): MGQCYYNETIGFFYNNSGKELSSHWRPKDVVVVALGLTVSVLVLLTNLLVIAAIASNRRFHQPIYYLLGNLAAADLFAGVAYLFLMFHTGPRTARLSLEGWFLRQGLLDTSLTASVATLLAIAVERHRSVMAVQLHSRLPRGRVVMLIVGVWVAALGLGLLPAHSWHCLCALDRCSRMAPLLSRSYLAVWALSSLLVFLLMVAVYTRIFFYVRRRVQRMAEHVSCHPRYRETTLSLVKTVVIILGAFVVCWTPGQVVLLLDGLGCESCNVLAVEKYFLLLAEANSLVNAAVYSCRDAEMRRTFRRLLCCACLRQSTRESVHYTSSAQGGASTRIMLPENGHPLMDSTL
T9 sequence (O00519 whole entry): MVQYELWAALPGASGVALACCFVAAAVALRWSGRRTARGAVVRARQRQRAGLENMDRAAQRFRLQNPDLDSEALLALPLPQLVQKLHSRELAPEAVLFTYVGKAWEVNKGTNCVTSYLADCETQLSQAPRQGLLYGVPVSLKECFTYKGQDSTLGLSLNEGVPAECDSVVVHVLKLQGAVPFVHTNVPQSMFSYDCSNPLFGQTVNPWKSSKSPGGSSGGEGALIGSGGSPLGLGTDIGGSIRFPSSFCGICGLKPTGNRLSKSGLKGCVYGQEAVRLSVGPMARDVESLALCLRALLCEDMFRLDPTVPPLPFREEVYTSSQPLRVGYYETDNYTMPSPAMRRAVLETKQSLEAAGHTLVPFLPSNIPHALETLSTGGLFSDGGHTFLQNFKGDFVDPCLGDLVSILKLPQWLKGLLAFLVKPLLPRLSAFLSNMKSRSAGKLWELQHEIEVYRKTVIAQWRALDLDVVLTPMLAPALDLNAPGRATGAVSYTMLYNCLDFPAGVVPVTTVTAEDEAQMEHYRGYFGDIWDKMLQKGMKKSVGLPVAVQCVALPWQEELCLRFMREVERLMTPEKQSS
T10 sequence (P11712 whole entry): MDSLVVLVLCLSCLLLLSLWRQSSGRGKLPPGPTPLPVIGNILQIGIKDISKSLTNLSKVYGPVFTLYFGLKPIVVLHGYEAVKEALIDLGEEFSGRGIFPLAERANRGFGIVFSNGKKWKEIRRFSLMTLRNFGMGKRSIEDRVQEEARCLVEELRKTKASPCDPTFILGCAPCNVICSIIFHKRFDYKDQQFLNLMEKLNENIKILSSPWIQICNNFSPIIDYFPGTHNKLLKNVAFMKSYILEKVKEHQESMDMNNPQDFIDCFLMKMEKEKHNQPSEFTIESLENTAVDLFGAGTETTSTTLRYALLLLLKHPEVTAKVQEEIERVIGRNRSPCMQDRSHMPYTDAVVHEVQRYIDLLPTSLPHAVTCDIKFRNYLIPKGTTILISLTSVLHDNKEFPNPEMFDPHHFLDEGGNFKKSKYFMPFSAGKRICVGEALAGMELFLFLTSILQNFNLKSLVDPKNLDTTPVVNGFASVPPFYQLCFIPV
CYP450 2C19, sequence (P33261 whole entry): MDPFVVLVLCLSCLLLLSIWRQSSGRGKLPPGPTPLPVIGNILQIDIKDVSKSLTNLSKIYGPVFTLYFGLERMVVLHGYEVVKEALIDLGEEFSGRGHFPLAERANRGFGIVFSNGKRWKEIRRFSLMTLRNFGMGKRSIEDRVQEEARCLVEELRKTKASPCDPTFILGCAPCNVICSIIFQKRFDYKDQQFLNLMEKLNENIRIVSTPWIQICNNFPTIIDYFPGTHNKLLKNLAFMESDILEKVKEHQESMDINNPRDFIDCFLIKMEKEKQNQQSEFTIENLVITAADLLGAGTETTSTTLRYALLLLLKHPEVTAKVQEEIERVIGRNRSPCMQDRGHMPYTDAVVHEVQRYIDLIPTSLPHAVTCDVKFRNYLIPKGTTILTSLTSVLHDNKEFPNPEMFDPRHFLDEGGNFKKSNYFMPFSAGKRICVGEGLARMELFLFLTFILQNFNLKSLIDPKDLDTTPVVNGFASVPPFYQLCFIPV
T8 sequence (P14416 1-414 isoform P14416-2): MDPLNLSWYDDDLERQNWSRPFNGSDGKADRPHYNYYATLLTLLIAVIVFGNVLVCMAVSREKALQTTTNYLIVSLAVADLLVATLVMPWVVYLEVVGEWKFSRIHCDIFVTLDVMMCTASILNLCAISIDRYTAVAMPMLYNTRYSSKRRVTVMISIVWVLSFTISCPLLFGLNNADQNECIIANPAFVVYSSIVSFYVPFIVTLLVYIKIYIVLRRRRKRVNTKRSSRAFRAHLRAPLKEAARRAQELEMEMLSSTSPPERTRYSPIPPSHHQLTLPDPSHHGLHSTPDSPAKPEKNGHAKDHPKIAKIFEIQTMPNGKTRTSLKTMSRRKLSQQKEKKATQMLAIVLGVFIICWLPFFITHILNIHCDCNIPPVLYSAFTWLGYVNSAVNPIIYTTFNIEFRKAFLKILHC
T2 sequence (O95977 whole entry): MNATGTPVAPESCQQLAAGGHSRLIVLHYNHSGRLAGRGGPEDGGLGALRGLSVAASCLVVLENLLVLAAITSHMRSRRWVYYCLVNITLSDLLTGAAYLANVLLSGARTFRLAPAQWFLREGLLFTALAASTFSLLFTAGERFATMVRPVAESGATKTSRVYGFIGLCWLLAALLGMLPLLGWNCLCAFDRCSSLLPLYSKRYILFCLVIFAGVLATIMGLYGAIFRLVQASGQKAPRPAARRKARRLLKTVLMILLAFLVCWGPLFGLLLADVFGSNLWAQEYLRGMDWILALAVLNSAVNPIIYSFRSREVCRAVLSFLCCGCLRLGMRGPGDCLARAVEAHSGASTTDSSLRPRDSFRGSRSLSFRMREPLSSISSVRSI
T7 sequence (P25025 whole entry): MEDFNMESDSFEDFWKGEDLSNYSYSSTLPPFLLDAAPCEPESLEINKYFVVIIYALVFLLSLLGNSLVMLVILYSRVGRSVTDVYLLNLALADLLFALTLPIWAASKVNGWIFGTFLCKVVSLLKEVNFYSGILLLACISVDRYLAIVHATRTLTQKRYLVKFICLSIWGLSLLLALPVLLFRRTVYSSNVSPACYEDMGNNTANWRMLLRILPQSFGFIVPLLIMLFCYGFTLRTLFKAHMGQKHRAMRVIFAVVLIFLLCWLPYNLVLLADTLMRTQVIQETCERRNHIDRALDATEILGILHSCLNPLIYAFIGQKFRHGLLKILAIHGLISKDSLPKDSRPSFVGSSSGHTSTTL

## C[C@H](CO)NC(=O)c1cccc(/C=C\CCCC(=O)N(C)C)c1 [VSN16R]
[1]
  Activity: Negligible Activity
[2]; 10µM VSN16R
  Activity: Negligible Activity
[2]; transfected cells
  Block of apamin binding to KCa2.2 channels: failed to block the binding of apamin
[3]
  Activity: Negligible Activity
[4]
  Activity: Negligible Activity
[5]
  Single BKCa channel activity: facilitated single BKCa channel activity
[6]
  IC50: > 10 µM
[7]
  Effect on primary porcine aorta endothelium: do not respond; also recorded: had no effects
[8]
  Activity: Negligible Activity
[9]; 10µM VSN16R
  Activity: Negligible Activity
[9]; tested to 10 μM
  Binding to CB2 receptors: did not bind
[10]
  Activity: Negligible Activity
[11]
  Activity: Negligible Activity
[12]
  Activity: Negligible Activity
[13]
  IC50: > 10 µM
[14]
  Activity: Negligible Activity
[15]
  EC50: 110 nM
[16]
  EC50: 10 nM
[17]
  Activity: Negligible Activity
[18]
  Single BKCa channel activity: stimulated single BKCa channel activity
[19]
  IC50: > 10 µM
[20]
  Activity: Negligible Activity
